In patent US9522881B2, “Hydroxyindole carboxylic acid based inhibitors for oncogenic Src homology-2 domain containing protein tyrosine phosphatase-2 (SHP2)” (Indiana University Research and Technology Corporation, priority 2013, dated 2016):

Legend:
Paxillin (pY118) = Paxillin (pY118) phosphorylation in H1975 cells (immunoblot); type: cell-based, human
Experimental: For biochemical studies, H1975 cells were serum-starved overnight followed by treatment with vehicle or compound 11a-1 for 3 hours, and then either left unstimulated or stimulated with 5 ng/ml EGF (Sigma, St. Louis, Mo.) for 60 minutes. Lysates were then resolved by SDS-PAGE and the protein phosphorylation levels were detected by immunoblot analysis. Specifically, cells were lysed in lysis buffer (1.0% Nonidet P-40, 50 mM Tris-HCl (pH 7.4), 150 mM NaCl, 5 mM EDTA, 2 mM NaVO3, 10 mM NaF) plus a protease inhibitor mixture available from Roche (Basel, Switzerland) and centrifuged at 10,000 rpm for 5 minutes at 4° C. Supernatants were collected and protein concentration was determined using the BCA protein assay (ThermoFisher Scientific, Rockford, Ill.). Equal amount of protein extracts were mixed with gel loading buffer and separated on SDS-PAGE. After electrophoresis, the proteins were transferred onto nitrocellulose membranes and nonspecific binding was blocked with 5% nonfat dry milk in Tris-buffered saline containing 0.1% Tween-20 (TBS-T). Membranes were then probed with various antibodies overnight at 4° C. on a rocker. After incubation, membranes were washed with TBS-T and incubated with appropriate horseradish peroxidase (HRP)-conjugated secondary antibodies for 1 hour at room temperature. Finally, the proteins on the membranes were detected using SuperSignal West Dura Luminol/Enhancer solution (ThermoFisher Scientific, Rockford, Ill.) and membranes were analyzed using Bio-Rad ChemiDoc XRS Imaging System.

MKP5 = MKP5 (Homo sapiens (Human), UniProt Q9Y6W6); assay: PTP selectivity panel, pNPP; type: biochemical, mammalian; conditions: pNPP at Km
PTPγ = PTPγ (Homo sapiens (Human), UniProt P23470); assay: PTP selectivity panel, pNPP; type: biochemical, mammalian; conditions: pNPP at Km
UBLCP1 = UBLCP1 (Homo sapiens (Human), UniProt Q8WVY7); assay: PTP selectivity panel, pNPP; type: biochemical, mammalian; conditions: pNPP at Km
PTPα = PTPα (Homo sapiens (Human), UniProt P18433); assay: PTP selectivity panel, pNPP; type: biochemical, mammalian; conditions: pNPP at Km
[1] = test system: 32D myeloid cells bearing KITD814V; assay: Proliferation (thymidine incorporation) of 32D myeloid cells bearing KITD814V; type: cell-based
Experimental: FIG. 8A is a graph depicting 32D myeloid cells bearing wild-type (WT) KIT or KITD814V that were starved of serum and growth factors for 6 hours and subjected to proliferation assay in the presence or absence of the indicated concentration of II-B08 or 11a-1 as analyzed in Example 6. Assay was performed in the presence of IL-3 (10 ng/mL) for cells bearing WT KIT and in the absence of growth factors for cells bearing oncogenic KITD814V. Bars denote the mean thymidine incorporation (CPM±SEM) consolidated from four independent experiments performed in triplicate. *p<0.05.
To further determine the efficacy of compound 11a-1, the growth of oncogenic KITD814V bearing 32D myeloid cells in the presence of II-B08 and 11a-1 were compared. Specifically, the wild-type (WT) KIT and KITD814V were inserted into the bicistronic retroviral vector, MIEG3, upstream of the internal ribosome entry site (IRES) and the enhanced green fluorescent protein (EGFP) gene as previously described in Mali et al., 2012. Retroviral supernatants for transduction of 32D myeloid cells and primary hematopoietic stem and progenitor cells were generated using Phoenix ecotropic packaging cell line transfected with retroviral vector plasmids using a calcium phosphate transfection kit (Invitrogen, Carlsbad, Calif.). Supernatants were collected 48 hours after transfection and filtered through 0.45 μm membranes. 32D myeloid cells were infected twice at 24-hour intervals with 2 mL high/titer virus supernatant in the presence of 10 ng/mL IL-3 and 8 μg/mL polybrene. Forty-eight hours after infection, 32D cells expressing WT KIT or KITD814V receptors were sorted to homogeneity based on EGFP expression and utilized to perform all of the experiments.

PEZ = PEZ (Homo sapiens (Human), UniProt Q15678); assay: PTP selectivity panel, pNPP; type: biochemical, mammalian; conditions: pNPP at Km
mPTPA = mPTPA (Mycobacterium tuberculosis (strain ATCC 25618 / H37Rv), UniProt P9WIA1); assay: PTP selectivity panel, pNPP; type: biochemical; conditions: pNPP at Km
PTPσ = PTPσ (Homo sapiens (Human), UniProt Q13332); assay: PTP selectivity panel, pNPP; type: biochemical, mammalian; conditions: pNPP at Km
SKBR3 cells = assay: SKBR3 breast cancer cell growth in Matrigel; type: cell-based
Experimental: Approximately 300,000 SKBR3 cells were seeded into 150 μl of growth factor reduced Matrigel (Corning, Corning, N.Y.) in 35 mm dishes. To 3 dishes for each condition, 2 mL of media containing either 10 μl vehicle (DMSO) or compound 11a-1 at the indicated concentration was then added. Every 24 hours, the cells were imaged with a NIKON SMZ1500 stereomicroscoppe. The cross-sectional area of individual colonies from each image were measured using Adobe Photoshop software. After 4 days, the cells were recovered from the Matrigel and lysed in PLC buffer containing protease inhibitor cocktail (Cat. No. P8340; Sigma-Aldrich, St. Louis, Mo.). Lysates were then resolved by SDS-PAGE and relative levels of the indicated proteins were detected by immunoblot analysis.

Laforin = Laforin (Homo sapiens (Human), UniProt O95278); assay: PTP selectivity panel, pNPP; type: biochemical, mammalian; conditions: pNPP at Km
SHP2 = SHP2 (Homo sapiens (Human), UniProt Q06124); assay: SHP2-catalyzed hydrolysis of p-nitrophenyl phosphate (pNPP); type: biochemical
SHP2, sequence (Q06124 whole entry, looked up): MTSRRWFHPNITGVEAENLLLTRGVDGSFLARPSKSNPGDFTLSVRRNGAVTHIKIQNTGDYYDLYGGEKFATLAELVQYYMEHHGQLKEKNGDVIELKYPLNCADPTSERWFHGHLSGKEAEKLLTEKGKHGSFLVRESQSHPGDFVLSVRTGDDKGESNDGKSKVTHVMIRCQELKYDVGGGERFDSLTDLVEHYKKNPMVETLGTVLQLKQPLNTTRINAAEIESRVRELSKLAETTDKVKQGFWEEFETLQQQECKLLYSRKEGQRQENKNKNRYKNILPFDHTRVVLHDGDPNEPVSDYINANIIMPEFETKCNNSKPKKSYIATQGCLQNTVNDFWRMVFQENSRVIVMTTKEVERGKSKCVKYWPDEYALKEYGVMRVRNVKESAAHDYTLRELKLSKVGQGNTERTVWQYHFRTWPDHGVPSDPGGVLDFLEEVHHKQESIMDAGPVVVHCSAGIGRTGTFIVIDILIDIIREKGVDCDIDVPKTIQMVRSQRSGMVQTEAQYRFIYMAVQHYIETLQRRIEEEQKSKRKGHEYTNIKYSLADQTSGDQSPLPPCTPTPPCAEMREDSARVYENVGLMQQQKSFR

PTPγ, sequence (P23470 20-1445): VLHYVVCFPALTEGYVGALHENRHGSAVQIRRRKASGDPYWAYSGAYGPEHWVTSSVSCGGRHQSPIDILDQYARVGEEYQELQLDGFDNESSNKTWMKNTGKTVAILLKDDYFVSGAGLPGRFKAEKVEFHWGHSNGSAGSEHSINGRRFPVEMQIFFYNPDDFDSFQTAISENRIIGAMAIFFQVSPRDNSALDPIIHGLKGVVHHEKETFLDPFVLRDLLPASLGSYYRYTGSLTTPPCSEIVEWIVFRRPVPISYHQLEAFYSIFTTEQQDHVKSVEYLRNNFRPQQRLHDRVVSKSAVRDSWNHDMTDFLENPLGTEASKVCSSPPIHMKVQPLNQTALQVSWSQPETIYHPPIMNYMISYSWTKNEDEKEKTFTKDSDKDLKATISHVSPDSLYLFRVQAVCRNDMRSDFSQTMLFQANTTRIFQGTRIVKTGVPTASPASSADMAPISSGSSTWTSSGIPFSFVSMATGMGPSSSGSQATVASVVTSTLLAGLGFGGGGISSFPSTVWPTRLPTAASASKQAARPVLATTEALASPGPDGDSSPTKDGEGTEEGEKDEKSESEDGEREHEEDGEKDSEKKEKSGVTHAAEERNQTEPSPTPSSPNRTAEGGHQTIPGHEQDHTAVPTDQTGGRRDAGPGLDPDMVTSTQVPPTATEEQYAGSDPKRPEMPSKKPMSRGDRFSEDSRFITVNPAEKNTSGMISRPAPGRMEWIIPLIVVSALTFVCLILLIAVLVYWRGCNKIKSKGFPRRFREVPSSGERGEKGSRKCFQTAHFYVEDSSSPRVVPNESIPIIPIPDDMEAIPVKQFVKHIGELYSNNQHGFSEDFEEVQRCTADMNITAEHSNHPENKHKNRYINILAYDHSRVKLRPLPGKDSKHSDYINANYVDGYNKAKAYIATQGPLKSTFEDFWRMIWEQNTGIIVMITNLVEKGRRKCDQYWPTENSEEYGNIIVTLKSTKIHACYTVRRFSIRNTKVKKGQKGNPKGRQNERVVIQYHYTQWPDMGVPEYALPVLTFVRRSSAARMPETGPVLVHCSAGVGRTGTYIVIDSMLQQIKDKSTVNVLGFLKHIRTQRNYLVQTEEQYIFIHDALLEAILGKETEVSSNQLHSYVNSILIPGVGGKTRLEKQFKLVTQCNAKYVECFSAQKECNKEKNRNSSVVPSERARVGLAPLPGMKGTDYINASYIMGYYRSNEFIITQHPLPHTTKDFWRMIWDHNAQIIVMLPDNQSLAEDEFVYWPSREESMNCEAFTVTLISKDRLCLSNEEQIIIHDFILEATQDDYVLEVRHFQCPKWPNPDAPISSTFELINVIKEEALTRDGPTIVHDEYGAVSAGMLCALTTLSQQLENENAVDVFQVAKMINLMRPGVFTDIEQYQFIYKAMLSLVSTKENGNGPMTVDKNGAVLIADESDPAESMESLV
PEZ, sequence (Q15678 whole entry, species assumed): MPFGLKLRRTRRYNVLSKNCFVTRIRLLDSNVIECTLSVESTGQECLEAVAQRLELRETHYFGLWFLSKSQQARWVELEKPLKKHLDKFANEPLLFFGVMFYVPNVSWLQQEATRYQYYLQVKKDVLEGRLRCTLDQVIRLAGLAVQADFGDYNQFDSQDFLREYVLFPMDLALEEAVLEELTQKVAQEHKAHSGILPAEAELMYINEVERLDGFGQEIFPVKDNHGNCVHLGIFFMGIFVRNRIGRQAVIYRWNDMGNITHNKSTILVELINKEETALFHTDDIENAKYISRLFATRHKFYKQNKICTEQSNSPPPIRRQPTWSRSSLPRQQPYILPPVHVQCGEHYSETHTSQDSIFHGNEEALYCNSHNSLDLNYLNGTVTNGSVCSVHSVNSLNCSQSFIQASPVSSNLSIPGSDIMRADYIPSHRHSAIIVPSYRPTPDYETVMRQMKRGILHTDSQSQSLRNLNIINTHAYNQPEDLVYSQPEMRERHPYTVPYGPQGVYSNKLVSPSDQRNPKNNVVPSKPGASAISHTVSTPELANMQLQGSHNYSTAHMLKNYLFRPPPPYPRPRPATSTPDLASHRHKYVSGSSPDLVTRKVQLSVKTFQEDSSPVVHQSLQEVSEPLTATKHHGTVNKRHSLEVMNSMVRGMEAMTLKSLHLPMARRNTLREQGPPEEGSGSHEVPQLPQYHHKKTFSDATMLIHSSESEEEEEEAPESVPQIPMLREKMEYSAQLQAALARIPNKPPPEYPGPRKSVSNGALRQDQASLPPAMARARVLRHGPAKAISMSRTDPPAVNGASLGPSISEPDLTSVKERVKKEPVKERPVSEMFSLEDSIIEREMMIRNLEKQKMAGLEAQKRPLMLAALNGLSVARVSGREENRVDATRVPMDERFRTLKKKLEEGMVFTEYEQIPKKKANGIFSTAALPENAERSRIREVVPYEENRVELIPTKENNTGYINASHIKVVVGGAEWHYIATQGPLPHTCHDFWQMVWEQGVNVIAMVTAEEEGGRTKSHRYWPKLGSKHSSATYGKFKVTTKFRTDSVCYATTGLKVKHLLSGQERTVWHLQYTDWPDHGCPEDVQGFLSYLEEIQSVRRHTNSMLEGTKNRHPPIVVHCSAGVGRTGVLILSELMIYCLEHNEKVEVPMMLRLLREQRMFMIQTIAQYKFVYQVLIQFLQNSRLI
PTPσ, sequence (Q13332 30-1948): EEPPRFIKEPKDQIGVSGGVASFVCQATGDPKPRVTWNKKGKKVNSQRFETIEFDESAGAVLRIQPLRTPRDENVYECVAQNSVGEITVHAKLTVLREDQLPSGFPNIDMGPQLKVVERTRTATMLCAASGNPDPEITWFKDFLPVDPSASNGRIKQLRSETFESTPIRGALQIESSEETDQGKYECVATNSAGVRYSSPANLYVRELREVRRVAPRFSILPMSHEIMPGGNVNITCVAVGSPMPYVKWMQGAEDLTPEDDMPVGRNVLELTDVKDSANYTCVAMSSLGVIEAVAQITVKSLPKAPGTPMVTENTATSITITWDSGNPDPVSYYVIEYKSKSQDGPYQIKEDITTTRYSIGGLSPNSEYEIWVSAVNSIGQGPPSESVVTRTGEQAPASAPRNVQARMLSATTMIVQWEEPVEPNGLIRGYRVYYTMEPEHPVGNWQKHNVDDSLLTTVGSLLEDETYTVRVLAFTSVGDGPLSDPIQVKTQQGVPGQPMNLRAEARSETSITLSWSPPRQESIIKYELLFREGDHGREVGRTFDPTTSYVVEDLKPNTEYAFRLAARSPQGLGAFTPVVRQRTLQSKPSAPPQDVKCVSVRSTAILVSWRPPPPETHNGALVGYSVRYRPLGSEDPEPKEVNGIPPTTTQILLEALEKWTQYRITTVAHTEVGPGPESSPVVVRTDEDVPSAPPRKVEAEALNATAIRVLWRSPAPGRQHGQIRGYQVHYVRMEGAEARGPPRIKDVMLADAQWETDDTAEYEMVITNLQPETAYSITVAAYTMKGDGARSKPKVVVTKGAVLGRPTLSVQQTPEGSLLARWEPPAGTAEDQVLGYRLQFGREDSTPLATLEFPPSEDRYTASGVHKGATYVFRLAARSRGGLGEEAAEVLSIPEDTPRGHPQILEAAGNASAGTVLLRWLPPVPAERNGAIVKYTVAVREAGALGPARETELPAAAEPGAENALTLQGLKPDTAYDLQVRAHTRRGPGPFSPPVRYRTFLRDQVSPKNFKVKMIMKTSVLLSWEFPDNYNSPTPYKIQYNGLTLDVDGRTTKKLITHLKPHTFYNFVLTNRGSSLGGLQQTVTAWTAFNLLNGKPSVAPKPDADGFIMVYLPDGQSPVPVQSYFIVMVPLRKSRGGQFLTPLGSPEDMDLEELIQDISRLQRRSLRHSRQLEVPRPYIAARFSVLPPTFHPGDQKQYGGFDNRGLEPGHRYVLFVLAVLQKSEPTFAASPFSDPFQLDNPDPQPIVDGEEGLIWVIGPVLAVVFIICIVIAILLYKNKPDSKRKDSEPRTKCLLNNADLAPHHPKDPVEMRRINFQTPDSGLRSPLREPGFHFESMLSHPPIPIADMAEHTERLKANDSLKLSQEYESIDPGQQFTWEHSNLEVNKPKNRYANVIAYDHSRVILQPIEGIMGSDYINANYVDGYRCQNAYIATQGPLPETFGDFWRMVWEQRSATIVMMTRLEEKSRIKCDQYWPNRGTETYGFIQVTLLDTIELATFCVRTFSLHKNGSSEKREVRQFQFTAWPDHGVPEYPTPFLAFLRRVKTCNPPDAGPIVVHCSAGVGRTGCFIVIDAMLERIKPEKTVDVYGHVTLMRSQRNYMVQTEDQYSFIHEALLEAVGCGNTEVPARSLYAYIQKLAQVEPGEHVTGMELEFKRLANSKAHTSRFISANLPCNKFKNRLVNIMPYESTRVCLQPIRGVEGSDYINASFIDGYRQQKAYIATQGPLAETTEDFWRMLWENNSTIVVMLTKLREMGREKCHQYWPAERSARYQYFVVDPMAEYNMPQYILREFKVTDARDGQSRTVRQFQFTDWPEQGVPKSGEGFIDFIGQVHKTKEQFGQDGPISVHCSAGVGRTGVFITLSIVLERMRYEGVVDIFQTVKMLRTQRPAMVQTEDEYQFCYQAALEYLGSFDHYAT

`Cn1c(-c2cccc(NC(=O)C(=O)Nc3ccc(-c4ccsc4)cc3)c2)c(I)c2cc(C(=O)O)c(O)cc21` [11a-1, 6-hydroxy-3-iodo-1-methyl-2-(3-(2-oxo-2-((4-(thiophen-3-yl)phenyl)amino)acetamido)phenyl)-1H-indole-5-carboxylic acid] was tested, and the “augmentation of Paxillin phosphorylation” value (Paxillin (pY118); 2 μM) was 30%, the “effect on EGF induced Paxillin (Y118) phosphorylation” value (Paxillin (pY118); dose-dependent) was “dose-dependently increased” and the IC50 (MKP5) was 2.9 ± 0.1 µM. It also gave an IC50 (PTPγ) of 2.4 ± 0.4 µM, an IC50 (UBLCP1) of 9.7 ± 0.5 µM and an IC50 (PTPα) greater than 100 µM. For the same molecule, the “ligand independent growth of KITD814V bearing 32D cells” value ([1]; 1 μM) was “significant inhibition”, the “ligand independent growth of KITD814V bearing 32D cells” value ([1]; 5 μM) was “significant inhibition” and the IC50 (PEZ) was 5.3 ± 0.2 µM. For the same molecule, the IC50 (mPTPA) was 1.09 ± 0.04 µM, the IC50 (PTPσ) was 8.6 ± 0.4 µM and the “growth of SKBR3 cells in Matrigel” value (SKBR3 cells; 3 μM, within 24 hours) was “potently inhibited”. For the same molecule, the “ErbB2+ breast cancer cell growth in a 3D Matrigel environment” value (SKBR3 cells; SKBR3, over 4 days, indicated concentrations) was “inhibited”, the IC50 (Laforin) was 12.2 ± 2 µM and the “selectivity for SHP2 over a panel of 20 mammalian PTPs” value (SHP2) was “over 5 fold”. It also gave an IC50 (SHP2; pNPP substrate, pH 7.0, 25° C.) of 0.2 ± 0.02 µM.
